Values quoted from earlier work as cited in patent US20120237901A1, “Denture Adhesive Remover for Intraoral and Extraoral Use” (priority 2011, published 2012).

Columns and labels:
bacteria = conditions: 5% solution of acetic acid in water; reportedly
mold = conditions: 5% solution of acetic acid in water; reportedly

In the case of CC(=O)O [acetic acid], the effective against bacteria (bacteria) is listed as 99.9% and the effective against mold (mold) is listed as 90%.
